{"source": "patent US20150017638A1", "about": "“METHODS FOR ASSESSING RISK FOR CANCER USING BIOMARKERS” (THE TRUSTEES OF THE UNIVERSITY OF PENNSYLVANIA, priority 2012, published 2015)", "key": {"[1]": {"test_system": "CY, KCY, PanIN PKCY, and PDAC PKCY mice", "assay": "Experimental acute pancreatitis elicited with cerulein in lineage-labeled mice", "type": "in vivo, mouse", "excerpt": "The behavior of mutant strains bearing various allele combinations of Pdx1-Cre KrasG12D, p16/p19fl, and p53fl has been described previously (Aguirre et al., 2003; Bardeesy et al., 2006; Hingorani et al., 2003; and U.S. patent application Ser. No. 11/503,499, the contents of which are expressly incorporated herein by reference). To perform lineage tracing, a RosaYFP reporter allele was introduced into these mutant backgrounds to generate a panel of compound mutant strains: Pdx1-Cre; RosaYFP (“CY”), Pdx 1-Cre; KrasG12D; RosaYFP (“KCY”), Pdx1-Cre; KrasG12D; p16/p19fl/+; RosaYFP (“IKCY”), and Pdx1-Cre; KrasG12D; p53fl/+; RosaYFP (“PKCY”). All experiments involving the KCY model employed mice between 8 and 10 weeks of age. For studies involving mice harboring only PaniN lesions by histologic analysis (“PanIN” mice), PKCY animals were sacrificed at 8-10 weeks of age based on prior observations regarding tumor progression (Bardeesy et al., 2006); no PKCY mice (out of 18 examined) had evidence of carcinoma at this time point. […] More than 90% of IKCY and PKCY mice were 34-38 weeks of age or 16-20 weeks of age, respectively, at the time of sacrifice.\nExperimental pancreatitis was elicited with cerulein as described (Siveke et al., 2008), and specimens were obtained after 3 days of treatment. Three to four CY, KCY, PanIN PKCY, and PDAC PKCY were used for cerulein and vehicle (PBS) treated cohorts. Orthotopic transplantations were performed on NOD/SCID mice by injecting 1×10^5 sorted pancreas cells as previously described (Mohammad et al., 1998). PKCY PanIN mice aged 10 weeks were treated with seven daily injections of dexamethasone or vehicle (DMSO) as described (Stairs et al., 2011) and analyzed 24 hours later.\nFor experiments involving flow cytometry and sorting of pancreatic cells, at least 25% of the tissue was saved for histologic analysis and was processed and stained. To create a single cell suspension, pancreatic tissue was rinsed vigorously in cold DMEM/F12 three times before mincing with scissors (approximately 100 chops). The minced pieces were then incubated in preheated collagenase with protease inhibitors (2 mg/ml; Sigma) for 20 min at 37° C. Vigorous vortexing was performed every 5 min during this incubation. The dissolved pieces were then poured over a […] cell strainer. The flow through was resuspended in cold 2% FCS/DMEM/F12, centrifuged, washed once, and kept on ice in the dark. Enriched blood samples or dissociated pancreatic specimens were stained for various markers prior to flow cytometric analysis (FACS Calibur, BD, or Accuri C6, Accuri Cytometers) or flow sorting (FACSVantage with FACSDiva option, BD). For analysis and sorting based on endogenous YFP and surface markers, primary antibodies (1:100) and secondary antibodies (1:50) were incubated with cells in 10% FCS/DMEM/F12 for 20 min at 4° C. Primary PanIN cell lines from IKCY and PKCY mice were used as positive controls. Isotype controls were also run. For intracellular staining of CPCs and pancreas cells, cells were washed with 10% FCS/DMEM/F12 before washing in freshly prepared 13fixation/permeabilization solution (Fix/Perm; eBioscience) followed by incubation in Fix/Perm for 30 min in the dark at 4° C. Cells were washed twice with 13 permeabilization buffer (Perm; eBioscience) before incubation in Block-P solution (10% FCS in freshly prepared Perm). After 15 min at 4° C., primary antibodies were added and incubated for an additional 20 min on ice. […]"}, "[2]": {"test_system": "Primary cell lines derived from PanIN mice (sorted YFP+ cells)", "assay": "In vitro exposure of PanIN-derived primary cell lines to cerulein, dexamethasone, TGF-b", "type": "cell-based, mouse", "details": "48 hr; for cell morphology: dexamethasone 1 mM, vs DMSO vehicle", "description": "Cells destined for transcriptional analysis were sorted into either RLT buffer (QIAGEN) or Trizol LS Reagent (Invitrogen). RNA was extracted from samples >1,000 cells using the RNEasy kit (QIAGEN). RNA from samples with fewer cells, including all sorted blood cell samples, was isolated using the PicoPure Extraction kit as directed (Arcturus). qPCR was performed as previously described (Zong et al., 2009), and primary sequences used are listed in Table 1, below. Relative expression was determined after adjusting for GAPDH. Genomic DNA was extracted from sorted CPCs pooled from three tumor-bearing mice using phenol or DNeasy kit (QIAGEN).\nPrimary cell lines were derived from PanIN mice after sorting pancreas single-cell suspensions for YFP^+ cells. Sorted YFP^+ cells were then placed in six-well plates in pancreatic ductal cell media (Schreiber et al., 2004) and passaged at 80% confluence, Cells were transferred to multiple 6-well plates (250,000 cells per well) in pancreatic ductal cell media containing DMSO vehicle, cerulein (100 nM, Sigma), dexamethasone (Dex, 1 mM, Sigma), TGF-b (5 ng/ml, Peprotech), or Dex (1 mM) and TGF-b (5 ng/ml). Morphology was photodocumented at 6 hr, 24 hr, and 48 hr after treatment using an inverted microscope. After 48 hr of exposure, cells were counted and RNA isolated, cDNA synthesized, and qPCR performed as described above."}, "[3]": {"test_system": "murine PanIN disease", "details": "Guerra et al., 2011; cited from earlier work"}, "[4]": {"details": "cerulein 100 nM, Dex 1 mM, triplicate"}}}
{"compound": "cerulein", "values": [{"measurement": "circulating pancreatic cell (CPC) number", "setting": "[1]; 8-week-old KCY mice, 3 days of cerulein vs vehicle", "result": "marked elevation in circulating cells"}, {"measurement": "pancreas histology (ADMI and PanIN formation)", "setting": "[1]; KCY mice, 8-week-old, 3 days of cerulein treatment vs vehicle", "result": "formation of ADMIs and accelerated PanIN formation"}, {"measurement": "frequency of EMT in pancreas", "setting": "[1]; PDAC mice, cerulein compared to vehicle", "result": "little change in the frequency of EMT"}, {"measurement": "circulating pancreatic cell (CPC) number", "setting": "[1]; across all groups (CY, KCY, PKCY PanIN, PDAC), p=0.014 by two-way ANOVA", "result": "significant increase in CPC number"}, {"measurement": "EMT (YFP+Zeb1+ cells) in pancreas", "setting": "[1]; control (CY) and KCY mice", "result": "emergence of YFP^+Zeb1^+ cells"}, {"measurement": "expression of a panel of epithelial or mesenchymal markers (qPCR)", "setting": "[2]; [4]", "result": "no effect"}, {"measurement": "proliferation", "setting": "[2]; [4]", "result": "no effect on proliferation"}, {"measurement": "cell morphology", "setting": "[2]; cerulein 100 nM, TGF-b 5 ng/ml", "result": "identical morphology as vehicle-treated cells"}]}
{"compound": "TGF-b", "values": [{"measurement": "expression of epithelial markers (qPCR)", "setting": "[2]; TGF-b 5 ng/ml, triplicate", "result": "significant downregulation of epithelial markers"}, {"measurement": "expression of mesenchymal markers Zeb1 and N-cad (qPCR)", "setting": "[2]; TGF-b 5 ng/ml, triplicate", "result": "increase in the expression of the mesenchymal markers Zeb1 and N-cad"}, {"measurement": "cell morphology", "setting": "[2]; cerulein 100 nM, TGF-b 5 ng/ml", "result": "acquisition of a fibroblast-like morphology"}]}
{"compound": "CC1=C(CC(=O)O)c2cc(F)ccc2/C1=C\\c1ccc([S+](C)[O-])cc1", "note": "(stereo not shown) [sulindac]", "values": [{"measurement": "PanIN disease", "setting": "[3]", "result": "regression of murine PanIN disease"}]}
{"compound": "C[C@@H]1C[C@H]2[C@@H]3CCC4=CC(=O)C=C[C@]4(C)[C@@]3(F)[C@@H](O)C[C@]2(C)[C@@]1(O)C(=O)CO", "note": "[dexamethasone]", "values": [{"measurement": "expression of a panel of epithelial or mesenchymal markers (qPCR)", "setting": "[2]; [4]", "result": "no effect"}]}
